Source: the supplement of paper PMC10307832

Assays:
Assay in all cases: relative viability (nuclei count vs DMSO), 5 days (fraction); higher = more cells survive
[1] = test system: A-427
Procedure, shortened: (§1)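 Nuclei were stained with Hoechst during a one-step fixation (final 0.05% Triton X-100, 1% formaldehyde, 1 ug/ml Hoechst) carried out 5 days after dosing, then counted on 4× images. The cells, lung cancer lines in 1536-well plates, had been dosed by pin tool the day after seeding with one drug alone or a fixed anchor-drug dose plus five library-drug doses (not always all listed) in √10 steps. Relative viability is the nuclei count in treated wells divided by that in vehicle wells, and each value is the median of duplicate plates.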

[2] = test system: BEN
Procedure, shortened: as §1

[3] = test system: EKVX
Procedure, shortened: as §1

[4] = test system: LC-2-ad
Procedure, shortened: as §1

[5] = test system: LCLC-97TM1
Procedure, shortened: as §1

[6] = test system: LOU-NH91
Procedure, shortened: as §1

[7] = test system: LU99A
Procedure, shortened: as §1

[8] = test system: NCI-H1355
Procedure, shortened: as §1

[9] = test system: NCI-H1650
Procedure, shortened: as §1

[10] = test system: NCI-H1666
Procedure, shortened: as §1

[11] = test system: NCI-H1915
Procedure, shortened: as §1

[12] = test system: NCI-H1993
Procedure, shortened: as §1

[13] = test system: NCI-H2228
Procedure, shortened: as §1

[14] = test system: NCI-H2347
Procedure, shortened: as §1

[15] = test system: NCI-H23
Procedure, shortened: as §1

[16] = test system: NCI-H460
Procedure, shortened: as §1

[17] = test system: NCI-H520
Procedure, shortened: as §1

[18] = test system: NCI-H650
Procedure, shortened: as §1

[19] = test system: NCI-H838
Procedure, shortened: as §1

[20] = test system: PC-3 [JPC-3]
Procedure, shortened: as §1

[21] = test system: RERF-LC-KJ
Procedure, shortened: as §1

[22] = test system: SW 1573
Procedure, shortened: as §1

## Cc1cnc(-c2cnc(NCCNc3ccc(C#N)cn3)nc2-c2ccc(Cl)cc2Cl)[nH]1 + CC(C)C[C@H](NC(=O)[C@H](Cc1ccccc1)NC(=O)c1cnccn1)B(O)O [Bortezomib] (partner 0.002 µM)
[1]; first compound 0.08 µM
  relative viability: 0.972
[1]; first compound 0.253 µM
  relative viability: 1.03
[1]; first compound 0.8 µM
  relative viability: 0.993
[1]; first compound 2.53 µM
  relative viability: 0.975
[2]; first compound 0.08 µM
  relative viability: 0.623
[2]; first compound 0.253 µM
  relative viability: 0.786
[2]; first compound 0.8 µM
  relative viability: 0.725
[2]; first compound 2.53 µM
  relative viability: 0.797
[3]; first compound 0.08 µM
  relative viability: 0.93
[3]; first compound 0.253 µM
  relative viability: 0.948
[3]; first compound 0.8 µM
  relative viability: 0.975
[3]; first compound 2.53 µM
  relative viability: 0.961
[4]; first compound 0.08 µM
  relative viability: 1.19
[4]; first compound 0.8 µM
  relative viability: 1.04
[4]; first compound 2.53 µM
  relative viability: 0.855
[5]; first compound 0.08 µM
  relative viability: 0.844
[5]; first compound 0.253 µM
  relative viability: 0.647
[5]; first compound 0.8 µM
  relative viability: 0.709
[5]; first compound 2.53 µM
  relative viability: 0.362
[6]; first compound 0.08 µM
  relative viability: 0.488
[6]; first compound 0.253 µM
  relative viability: 0.519
[6]; first compound 0.8 µM
  relative viability: 0.491
[6]; first compound 2.53 µM
  relative viability: 0.491
[7]; first compound 0.08 µM
  relative viability: 1.27
[7]; first compound 0.253 µM
  relative viability: 1.12
[7]; first compound 0.8 µM
  relative viability: 1.29
[7]; first compound 2.53 µM
  relative viability: 1.18
[8]; first compound 0.08 µM
  relative viability: 1.29
[8]; first compound 0.253 µM
  relative viability: 0.961
[8]; first compound 0.8 µM
  relative viability: 1.04
[8]; first compound 2.53 µM
  relative viability: 1.15
[9]; first compound 0.08 µM
  relative viability: 0.207
[9]; first compound 0.253 µM
  relative viability: 0.214
[9]; first compound 0.8 µM
  relative viability: 0.24
[9]; first compound 2.53 µM
  relative viability: 0.207
[10]; first compound 0.08 µM
  relative viability: 0.824
[10]; first compound 0.253 µM
  relative viability: 0.857
[10]; first compound 0.8 µM
  relative viability: 0.764
[10]; first compound 2.53 µM
  relative viability: 0.886
[11]; first compound 0.08 µM
  relative viability: 0.977
[11]; first compound 0.8 µM
  relative viability: 1.02
[11]; first compound 2.53 µM
  relative viability: 0.975
[12]; first compound 0.08 µM
  relative viability: 1.23
[12]; first compound 0.253 µM
  relative viability: 1.07
[12]; first compound 0.8 µM
  relative viability: 1.1
[12]; first compound 2.53 µM
  relative viability: 1.26
[13]; first compound 0.08 µM
  relative viability: 1.04
[13]; first compound 0.253 µM
  relative viability: 0.879
[13]; first compound 0.8 µM
  relative viability: 0.986
[13]; first compound 2.53 µM
  relative viability: 0.912
[14]; first compound 0.08 µM
  relative viability: 0.812
[14]; first compound 0.253 µM
  relative viability: 0.914
[14]; first compound 0.8 µM
  relative viability: 1.16
[14]; first compound 2.53 µM
  relative viability: 1.13
[15]; first compound 0.08 µM
  relative viability: 1.13
[15]; first compound 0.253 µM
  relative viability: 0.846
[15]; first compound 0.8 µM
  relative viability: 1.16
[15]; first compound 2.53 µM
  relative viability: 1.13
[16]; first compound 0.08 µM
  relative viability: 1.18
[16]; first compound 0.253 µM
  relative viability: 1
[16]; first compound 0.8 µM
  relative viability: 1.07
[16]; first compound 2.53 µM
  relative viability: 0.968
[17]; first compound 0.08 µM
  relative viability: 0.72
[17]; first compound 0.253 µM
  relative viability: 0.551
[17]; first compound 0.8 µM
  relative viability: 0.473
[17]; first compound 2.53 µM
  relative viability: 0.523
[18]; first compound 0.08 µM
  relative viability: 0.707
[18]; first compound 0.253 µM
  relative viability: 0.819
[18]; first compound 0.8 µM
  relative viability: 0.838
[18]; first compound 2.53 µM
  relative viability: 0.744
[19]; first compound 0.08 µM
  relative viability: 0.853
[19]; first compound 0.253 µM
  relative viability: 0.757
[19]; first compound 0.8 µM
  relative viability: 0.889
[19]; first compound 2.53 µM
  relative viability: 0.99
[20]; first compound 0.08 µM
  relative viability: 0.791
[20]; first compound 0.253 µM
  relative viability: 0.818
[20]; first compound 0.8 µM
  relative viability: 0.811
[20]; first compound 2.53 µM
  relative viability: 0.869
[21]; first compound 0.08 µM
  relative viability: 1.27
[21]; first compound 0.253 µM
  relative viability: 1
[21]; first compound 0.8 µM
  relative viability: 0.804
[21]; first compound 2.53 µM
  relative viability: 0.931
[22]; first compound 0.08 µM
  relative viability: 1.09
[22]; first compound 0.253 µM
  relative viability: 0.899
[22]; first compound 0.8 µM
  relative viability: 1.13
[22]; first compound 2.53 µM
  relative viability: 0.925
